For the assay, the target named is BRD4 (BDI_K57-E168) (Homo sapiens, UniProt O60885). Briefly: TR-FRET bromodomain binding assay, BRD4 BDI. For orientation: In TR-FRET formats the signal depends on donor and acceptor labels being close together.
A word on the Ki: it is the dissociation constant of the complex between target and ligand, obtained from inhibition or displacement. Low values mean higher affinity, high ones lower affinity. `Cc1cc(F)cc(C)c1Oc1ccc(C(C)(C)O)cc1-c1cn(C)c(=O)cc1O[C@H]1CC[C@H](n2nccc2O)CC1` [Example 114, 5-[2-(4-fluoro-2,6-dimethylphenoxy)-5-(2-hydroxypropan-2-yl)phenyl]-4-{[trans-4-(5-hydroxy-1H-pyrazol-1-yl)cyclohexyl]oxy}-1-methylpyridin-2(1H)-one]: the Ki was 4.66 µM. The figure for `Cc1cc(F)cc(C)c1Oc1ccc(C(C)(C)O)cc1-c1cn(C)c(=O)cc1O[C@H]1CC[C@H](N2NC(=O)CC2=O)CC1` [Example 121, 1-[trans-4-({5-[2-(4-fluoro-2,6-dimethylphenoxy)-5-(2-hydroxypropan-2-yl)phenyl]-1-methyl-2-oxo-1,2-dihydropyridin-4-yl}oxy)cyclohexyl]pyrazolidine-3,5-dione] is over 13 µM; for `Cc1cc(F)cc(C)c1Oc1ccc(C(C)(C)O)cc1-c1cn(C)c(=O)cc1O[C@H]1CC[C@H](NC(=O)C(C)(C)C)CC1` [Example 57, N-[trans-4-({5-[2-(4-fluoro-2,6-dimethylphenoxy)-5-(2-hydroxypropan-2-yl)phenyl]-1-methyl-2-oxo-1,2-dihydropyridin-4-yl}oxy)cyclohexyl]-2,2-dimethylpropanamide] it is 1.66 µM. Compound `Cc1cccc(C)c1Oc1ccc(C(C)(C)O)cc1-c1cn(C)c(=O)cc1NC1CCN(S(C)(=O)=O)CC1` [Example 2, 5-[2-(2,6-dimethylphenoxy)-5-(2-hydroxypropan-2-yl)phenyl]-4-{[1-(methanesulfonyl)piperidin-4-yl]amino}-1-methylpyridin-2(1H)-one] gave a Ki of 5.89 µM. For `Cc1cc(F)cc(C)c1Oc1ccc(C(C)(C)O)cc1-c1cn(C)c(=O)cc1O[C@H]1CC[C@H](N2C(=O)NC(C)(C)C2=O)CC1` [Example 140, 3-[trans-4-({5-[2-(4-fluoro-2,6-dimethylphenoxy)-5-(2-hydroxypropan-2-yl)phenyl]-1-methyl-2-oxo-1,2-dihydropyridin-4-yl}oxy)cyclohexyl]-5,5-dimethylimidazolidine-2,4-dione], the affinity corresponds to a Ki of 11.2 µM.

The compound `Cc1cc(F)cc(C)c1Oc1ccc(C(C)(C)O)cc1-c1cn(C)c(=O)cc1O[C@H]1CC[C@H](N2CCOC2=O)CC1` [Example 38, 5-[2-(4-fluoro-2,6-dimethylphenoxy)-5-(2-hydroxypropan-2-yl)phenyl]-1-methyl-4-{[trans-4-(2-oxo-1,3-oxazolidin-3-yl)cyclohexyl]oxy}pyridin-2(1H)-one] yielded a Ki of 2.5 µM.

Compound `Cc1cc(F)cc(C)c1Oc1ccc(C(C)(C)O)cc1-c1cn(C)c(=O)cc1O[C@H]1CC[C@H](NNC(=O)OC(C)(C)C)CC1` [Example 106, tert-butyl 2-[trans-4-({5-[2-(4-fluoro-2,6-dimethylphenoxy)-5-(2-hydroxypropan-2-yl)phenyl]-1-methyl-2-oxo-1,2-dihydropyridin-4-yl}oxy)cyclohexyl]hydrazine-1-carboxylate] returned a Ki of 3.41 µM. For `Cc1cc(F)cc(C)c1Oc1ccc(C(C)(C)O)cc1-c1cn(C)c(=O)cc1O[C@H]1CC[C@H](NC(=O)C23CC(NC(=O)OC(C)(C)C)(C2)C3)CC1` (relative stereo) [Example 72, tert-butyl (3-{[trans-4-({5-[2-(4-fluoro-2,6-dimethylphenoxy)-5-(2-hydroxypropan-2-yl)phenyl]-1-methyl-2-oxo-1,2-dihydropyridin-4-yl}oxy)cyclohexyl]carbamoyl}bicyclo[1.1.1]pentan-1-yl)carbamate], the Ki was over 13 µM. Regarding `COCC(=O)N[C@H]1CC[C@H](Oc2cc(=O)n(C)cc2-c2cc(C(C)(C)O)ccc2Oc2c(C)cc(F)cc2C)CC1` [Example 53, N-[trans-4-({5-[2-(4-fluoro-2,6-dimethylphenoxy)-5-(2-hydroxypropan-2-yl)phenyl]-1-methyl-2-oxo-1,2-dihydropyridin-4-yl}oxy)cyclohexyl]-2-methoxyacetamide], the Ki came out at 1.44 µM.

For the origin of these results see patent US20210047304A1, “Bromodomain Inhibitors” (AbbVie Inc., priority 2016, published 2021).
